Results reported in ChEMBL document CHEMBL1201862, “PubChem BioAssay data set” (2004).
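Growth conditions: 96-well plates. Treatment: test compound, 48 hours, 5 concentrations. Analysis: linear interpolation between bracketing concentrations; unreached endpoints set to highest concentration. Here, GI50 denotes the concentration required for 50% inhibition of growth.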 The source made the active and inactive calls. Rule as the data show it: active = GI50 up to about 1.1 µM and inactive = higher.

Columns and labels:
Assay in all cases: NCI anticancer screen, dose series, 48 h
SNB-75 = system: SNB-75
BT-549 = system: BT-549
COLO 205 = system: COLO 205
MCF7 = system: MCF7
OVCAR-4 = system: OVCAR-4
SR = system: SR
OVCAR-3 = system: OVCAR-3
HCT-116 = system: HCT-116
KM12 = system: KM12
NCI-H460 = system: NCI-H460
T47D = system: T47D
RPMI-8226 = system: RPMI-8226
UACC-62 = system: UACC-62
EKVX = system: EKVX
OVCAR-8 = system: OVCAR-8
LOX IMVI = system: LOX IMVI
M14 = system: M14
HL-60 = system: HL-60
Hs-578T = system: Hs-578T

Structure (SMILES) | GI50 (SNB-75) | GI50 (BT-549) | GI50 (COLO 205) | GI50 (MCF7) | GI50 (OVCAR-4) | GI50 (SR) | GI50 (OVCAR-3) | GI50 (HCT-116) | GI50 (KM12) | GI50 (NCI-H460) | GI50 (T47D) | GI50 (RPMI-8226) | GI50 (UACC-62) | GI50 (EKVX) | GI50 (OVCAR-8) | GI50 (LOX IMVI) | GI50 (M14) | GI50 (HL-60) | GI50 (Hs-578T)
Cc1cc2c(C)cc(=O)[nH]c2cc1N | 84.3 µM (inactive) | > 100 µM (inactive) | 60.1 µM (inactive) | 67.5 µM (inactive) | > 100 µM (inactive) | > 100 µM (inactive) | > 100 µM (inactive) | > 100 µM (inactive) | > 100 µM (inactive) | 65.5 µM (inactive) | > 100 µM (inactive) | > 100 µM (inactive) | 35.4 µM (inactive) | 67.6 µM (inactive) | > 100 µM (inactive) | > 100 µM (inactive) | > 100 µM (inactive) | – | –
CCOC(=O)/C(=C\NC(=S)Nc1ccc(OCC)cc1)C(=O)c1ccccc1 | 44.2 µM (inactive) | – | > 100 µM (inactive) | > 100 µM (inactive) | 79.8 µM (inactive) | > 100 µM (inactive) | > 100 µM (inactive) | > 100 µM (inactive) | > 100 µM (inactive) | > 100 µM (inactive) | 24 µM (inactive) | > 100 µM (inactive) | > 100 µM (inactive) | > 100 µM (inactive) | > 100 µM (inactive) | > 100 µM (inactive) | > 100 µM (inactive) | > 100 µM (inactive) | 57.9 µM (inactive)
C=C(C)C#CC(O)(C(=O)OC1CCN(C)CC1)C(C)C (configuration not stated) | > 100 µM (inactive) | – | > 100 µM (inactive) | > 100 µM (inactive) | – | > 100 µM (inactive) | > 100 µM (inactive) | > 100 µM (inactive) | > 100 µM (inactive) | – | > 100 µM (inactive) | > 100 µM (inactive) | > 100 µM (inactive) | > 100 µM (inactive) | > 100 µM (inactive) | > 100 µM (inactive) | > 100 µM (inactive) | > 100 µM (inactive) | –
O=C1c2cccc3cc([N+](=O)[O-])cc(c23)C(=O)N1CCCN1CCN(CCCNc2ccc3ncn4c5ccccc5c(=O)c2c34)CC1 | < 0.005 µM (active) | < 0.005 µM (active) | < 0.005 µM (active) | < 0.005 µM (active) | 0.00547 µM (active) | – | 0.0358 µM (active) | < 0.005 µM (active) | < 0.005 µM (active) | < 0.005 µM (active) | – | < 0.005 µM (active) | < 0.005 µM (active) | < 0.005 µM (active) | < 0.005 µM (active) | < 0.005 µM (active) | < 0.005 µM (active) | < 0.005 µM (active) | < 0.005 µM (active)
